Here are results for 29 molecules from patent US20230113037A1 (Bayer Aktiengesellschaft, priority 2019, published 2023).

pIC50: −log10 of the molar value. Where only a bound is given, the exact number is not on record here.

For orientation: pIC50 means the IC50 on a negative log10 scale, so that one unit is a factor of ten.

One test addresses T1, AHR (Mus musculus, UniProt P30561).
T1 sequence (P30561 1-848 P471L/N533S/M589L): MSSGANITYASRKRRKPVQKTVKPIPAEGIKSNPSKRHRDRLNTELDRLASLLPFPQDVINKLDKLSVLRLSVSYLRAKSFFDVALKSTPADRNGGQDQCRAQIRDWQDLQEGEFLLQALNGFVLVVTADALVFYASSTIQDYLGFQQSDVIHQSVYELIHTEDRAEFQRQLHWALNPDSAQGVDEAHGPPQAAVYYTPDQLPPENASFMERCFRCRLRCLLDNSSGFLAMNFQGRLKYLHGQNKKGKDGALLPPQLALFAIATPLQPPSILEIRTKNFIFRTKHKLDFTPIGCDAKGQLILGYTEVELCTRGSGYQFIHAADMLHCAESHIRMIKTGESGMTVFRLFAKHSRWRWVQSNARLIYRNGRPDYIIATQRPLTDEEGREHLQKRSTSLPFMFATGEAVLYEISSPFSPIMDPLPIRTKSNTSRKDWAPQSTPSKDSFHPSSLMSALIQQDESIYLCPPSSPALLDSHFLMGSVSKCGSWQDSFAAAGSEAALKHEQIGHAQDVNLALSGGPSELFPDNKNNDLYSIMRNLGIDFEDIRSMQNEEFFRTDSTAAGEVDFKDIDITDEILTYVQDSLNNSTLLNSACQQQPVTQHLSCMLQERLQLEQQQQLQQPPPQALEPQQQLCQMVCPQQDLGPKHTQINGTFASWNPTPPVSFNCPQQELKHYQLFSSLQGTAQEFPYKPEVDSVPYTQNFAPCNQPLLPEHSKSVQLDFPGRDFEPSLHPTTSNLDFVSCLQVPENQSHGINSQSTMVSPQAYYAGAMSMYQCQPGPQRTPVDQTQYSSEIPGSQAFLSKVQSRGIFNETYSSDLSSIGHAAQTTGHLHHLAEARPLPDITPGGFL
The experiment in a line: In vitro assay 3: antagonism in mouse cell line (AHR transactivation, firefly luciferase reporter, kynurenic acid prestimulated). It counts as cell-based. The conditions noted are these: Hepa 1c1c7 cells, 200 μM kynurenic acid, 20 hours, firefly luciferase reporter, read-out: AHR Antagonism Mouse IC50. As to the method:
Examples were tested in selected biological assays one or more times. When tested more than once, data are reported as either average values or as median values, wherein • the average value, also referred to as the arithmetic mean value, represents the sum of the values obtained divided by the number of times tested, and • the median value represents the middle number of the group of values when ranked in ascending or descending order. If the number of values in the data set is odd, the median is the middle value. If the number of values in the data set is even, the median is the arithmetic mean of the two middle values.
In addition the cells were stably transfected with an AHR inducible firefly luciferase reporter gene construct that carried AHR-binding sites (DRE) in its promoter. Kynurenic acid is an endogenous AHR activating ligand and was used to prestimulate test cells prior to testing the antagonistic properties of compounds.
As positive inhibition control cells without addition of kynurenic acid were incubated. Normalization was done by positive and negative controls.
Firefly luciferase activity was determined by the SteadyGlo Luciferase Assay System (Promega, #E2550).
For orientation: In a reporter assay the amount or activity of a reporter protein is the signal.
Regarding `O=C1NCCNC[C@@H]1Nc1nc2c(Br)cccc2c2nc(-c3ccc(F)cc3)nn12` [Example 973, (6S)-6-{[7-bromo-2-(4-fluorophenyl)[1,2,4]triazolo[1,5-c]quinazolin-5-yl]amino}-1,4-diazepan-5-one], the pIC50 is 8.08.

The same test, now with this note: mouse Hepa 1c1c7 cells, 200 μM kynurenic acid, 20 hours, read-out: AHR Antagonism Mouse IC50.
For `CN1CC[C@@H](Nc2nc3ccccc3c3nc(-c4ccc(OC(F)(F)F)cc4)nn23)C1=O` [Example 328, (3R)-1-methyl-3-({2-[4-(trifluoromethoxy)phenyl][1,2,4]triazolo[1,5-c]quinazolin-5-yl}amino)pyrrolidin-2-one], the pIC50 was 7.71.

Regarding `COc1ccc(-c2nc3c4cc(C(F)(F)F)ccc4nc(N[C@@H]4CCCCNC4=O)n3n2)cc1` [Example 545, (3R)-3-{[2-(4-methoxyphenyl)-9-(trifluoromethyl)[1,2,4]triazolo[1 ,5-c]quinazolin-5-yl]amino}azepan-2-one], the pIC50 was less than 4.70.

`COc1ccc(-c2nc3c4ccccc4nc(N[C@H](CC(C)C)C(N)=O)n3n2)cc1` [Example 27, N^2-[2-(4-methoxyphenyl)[1,2,4]triazolo[1,5-c]quinazolin-5-yl]-D-leucinamide]: the pIC50 is 8.01.

Consider `COc1cccc(-c2nc3c4ccccc4nc(N[C@H](CCSC)C(N)=O)n3n2)c1` [Example 96, N^2-[2-(3-methoxyphenyl)[1,2,4]triazolo[1,5-c]quinazolin-5-yl]-D-methioninamide], for which the pIC50 was 6.57.

For `CC[C@@H](Nc1nc2ccccc2c2nc(-c3cccc(OC)c3)nn12)C(=O)O` [Example 95, (2R)-2-{[2-(3-methoxyphenyl)[1,2,4]triazolo[1,5-c]quinazolin-5-yl]amino}butanoic acid], the pIC50 is 6.40.

`Cc1ccc(-c2nc3c4ccccc4nc(N[C@@H]4CCCCNC4=O)n3n2)cc1` [Example 56, (3R)-3-{[2-(4-methylphenyl)[1,2,4]triazolo[1,5-c]quinazolin-5-yl]amino}azepan-2-one]: the pIC50 was 9.74.

Take `O=C1NCCNCC1Nc1nc2cccc(Br)c2c2nc(-c3cccc(F)c3)nn12` (centres unmarked) [Example 283, 6-{[10-bromo-2-(3-fluorophenyl)[1,2,4]triazolo[1,5-c]quinazolin-5-yl]amino}-1,4-diazepan-5-one]: the pIC50 is 6.76.

On to `O=C1NCCNCC1Nc1nc2cccc(Cl)c2c2nc(-c3ccc(F)cc3)nn12` (single isomer, unassigned) [Example 298, 6-{[10-chloro-2-(4-fluorophenyl)[1,2,4]triazolo[1,5-c]quinazolin-5-yl]amino}-1,4-diazepan-5-one], for which the pIC50 was 7.20.

In the case of `O=C1NCCCC[C@@H]1Nc1nc2ccccc2c2nc(-c3ccc(Cl)cc3)nn12` [Example 7, (3S)-3-{[2-(4-chlorophenyl)[1,2,4]triazolo[1,5-c]quinazolin-5-yl]amino}azepan-2-one], the pIC50 is 8.61.

In the case of `O=C1NCCCC[C@H]1Nc1nc2c(Br)cc(Br)cc2c2nc(-c3ccc(F)cc3)nn12` [Example 591, (3R)-3-{[7,9-dibromo-2-(4-fluorophenyl)[1,2,4]triazolo[1,5-c]quinazolin-5-yl]amino}azepan-2-one], the pIC50 was 5.62.

For the molecule `CCCC[C@H](Nc1nc2ccccc2c2nc(-c3ccccc3OC(F)(F)F)nn12)C(N)=O` [Example 467, N^2-{2-[2-(trifluoromethoxy)phenyl][1,2,4]triazolo[1,5-c]quinazolin-5-yl}norleucinamide], the pIC50 was 7.48.

As for `CC[C@H](Nc1nc2ccccc2c2nc(-c3ccccc3OC(F)(F)F)nn12)C(N)=O` [Example 462, (2S)-2-({2-[2-(trifluoromethoxy)phenyl][1,2,4]triazolo[1,5-c]quinazolin-5-yl}amino)butanamide], the pIC50 was 7.09.

With `COc1ccc(-c2nc3c4cc(Br)cc(Br)c4nc(N[C@@H]4CCCCNC4=O)n3n2)cc1` [Example 593, (3R)-3-{[7,9-dibromo-2-(4-methoxyphenyl)[1,2,4]triazolo[1,5-c]quinazolin-5-yl]amino}azepan-2-one], the pIC50 is 7.09.

Regarding `O=C1NCCCC1Nc1nc2ccccc2c2nc(-c3ccc(F)cc3)nn12` (centres unmarked) [Example 72, 3-{[2-(4-fluorophenyl)[1,2,4]triazolo[1,5-c]quinazolin-5-yl]amino}piperidin-2-one], the pIC50 is 8.00.

Turning to `O=C1NCCNC[C@H]1Nc1nc2c(F)cccc2c2nc(-c3ccc(F)cc3)nn12` [Example 427, (6R)-6-{[7-fluoro-2-(4-fluorophenyl)[1,2,4]triazolo[1,5-c]quinazolin-5-yl]amino}-1,4-diazepan-5-one], the pIC50 was 8.50.

In the case of `O=C1NCCCC[C@H]1Nc1nc2ccccc2c2nc(-c3cc(Cl)ccc3OC(F)(F)F)nn12` [Example 497, (3R)-3-({2-[5-chloro-2-(trifluoromethoxy)phenyl][1,2,4]triazolo[1,5-c]quinazolin-5-yl}amino)azepan-2-one], the pIC50 was 7.24.

With `COc1ccc(-c2nc3c4cc(C)ccc4nc(N[C@@H]4CNCCNC4=O)n3n2)cc1` [Example 280, (6R)-6-{[2-(4-methoxyphenyl)-9-methyl[1,2,4]triazolo[1,5-c]quinazolin-5-yl]amino}-1,4-diazepan-5-one], the pIC50 is 7.48.

Turning to `O=C1NCCC[C@H]1Nc1nc2ccccc2c2nc(-c3ccccc3Br)nn12` [Example 454, (3R)-3-{[2-(2-bromophenyl)[1,2,4]triazolo[1,5-c]quinazolin-5-yl]amino}piperidin-2-one], the pIC50 was 6.78.

As to `COc1ccc(-c2nc3c4ccccc4nc(N[C@@H]4CN(C)CCNC4=O)n3n2)cc1` [Example 656, (6R)-6-{[2-(4-methoxyphenyl)[1,2,4]triazolo[1,5-c]quinazolin-5-yl]amino}-1-methyl-1,4-diazepan-5-one], the pIC50 is 7.52.

As to `O=C1NCCNC[C@H]1Nc1nc2c(Br)cccc2c2nc(-c3ccc(F)cc3)nn12` [Example 269, (6R)-6-{[7-bromo-2-(4-fluorophenyl)[1,2,4]triazolo[1,5-c]quinazolin-5-yl]amino}-1,4-diazepan-5-one], the pIC50 is 8.92.

For the molecule `N#Cc1ccc(-c2nc3c4ccccc4nc(N[C@@H]4CCNC4=O)n3n2)cc1` [Example 388, 4-(5-{[(3R)-2-oxopyrrolidin-3-yl]amino}[1,2,4]triazolo[1,5-c]quinazolin-2-yl)benzonitrile], the pIC50 was 5.54.

As to `O=C1NCCNC[C@H]1Nc1nc2ccccc2c2nc(-c3cnn(CCO)c3)nn12` [Example 414, (6R)-5-({2-[1-(2-hydroxyethyl)-1H-pyrazol-4-yl][1,2,4]triazolo[1,5-c]quinazolin-5-yl}amino)-1,4-diazepan-5-one], the pIC50 is less than 4.70.

As for `O=C1NCCCC[C@@H]1Nc1nc2ccccc2c2nc(-c3ccccc3)nn12` [Example 1, (3S)-3-[(2-phenyl[1,2,4]triazolo[1,5-c]quinazolin-5-yl)amino]azepan-2-one], the pIC50 is 8.31.

For the molecule `COc1ccc(-c2nc3c4cccc(C(F)(F)F)c4nc(N[C@H]4CCCCNC4=O)n3n2)cc1` [Example 582, (3S)-3-{[2-(4-methoxyphenyl)-7-(trifluoromethyl)[1,2,4]triazolo[1,5-c]quinazolin-5-yl]amino}azepan-2-one], the pIC50 was 7.36.

`COc1ccc(-c2nc3c4ccccc4nc(N[C@@H](CCCCNC(=O)OC(C)(C)C)C(N)=O)n3n2)cc1` [Example 25, tert-butyl [(5S)-6-amino-5-{[2-(4-methoxyphenyl)[1,2,4]triazolo[1,5-c]quinazolin-5-yl]amino}-6-oxohexyl]carbamate]: the pIC50 is 6.31.

Take `COc1ccc(-c2nc3c4ccccc4nc(NC4CCCNC4=O)n3n2)cc1` (single isomer, unassigned) [Example 37, 3-{[2-(4-methoxyphenyl)[1,2,4]triazolo[1,5-c]quinazolin-5-yl]amino}piperidin-2-one]: the pIC50 is 6.62.

With `O=C1NCCCC[C@@H]1Nc1nc2c(Br)cccc2c2nc(-c3cccc(F)c3)nn12` [Example 209, (3S)-3-{[7-bromo-2-(3-fluorophenyl)[1,2,4]triazolo[1,5-c]quinazolin-5-yl]amino}azepan-2-one], the pIC50 was 7.81.

The same test, now with this note: read-out: AHR Antagonism Mouse IC50, mouse Hepa 1c1c7 cells, 200 μM kynurenic acid, 20 hours.
Turning to `O=C1NCCCC[C@@H]1Nc1nc2ccccc2c2nc(-c3cc(C(F)(F)F)ccn3)nn12` [Example 364], the pIC50 was 6.61.
